Target: T1, human CXCR3 (N-delta 4) (Homo sapiens, UniProt P49682)
T1 construct: CD8 leader; Flag tag; expressed in transfected cells; membranes used
T1 sequence (P49682 5-368 limits assumed): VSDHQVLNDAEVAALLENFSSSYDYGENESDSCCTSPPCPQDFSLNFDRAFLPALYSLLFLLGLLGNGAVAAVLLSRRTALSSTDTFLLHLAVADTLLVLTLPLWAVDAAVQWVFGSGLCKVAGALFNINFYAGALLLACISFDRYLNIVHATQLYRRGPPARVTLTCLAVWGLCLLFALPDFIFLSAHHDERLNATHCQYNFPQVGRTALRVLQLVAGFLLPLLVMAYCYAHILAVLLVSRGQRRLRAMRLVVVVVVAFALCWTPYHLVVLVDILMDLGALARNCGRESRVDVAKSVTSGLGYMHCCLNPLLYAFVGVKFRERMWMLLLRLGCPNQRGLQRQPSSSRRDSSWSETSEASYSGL
Test: Human CXCR3 (N-delta 4) scintillation proximity assay (SPA), [125I] IP-10 binding
Details: IC50 rating; Ba/F3-hCXCR3 (N-delta 4) membranes, 25 pM [125I] IP-10
In short: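 IP-10 and compound titrations added together. The receptor source was SPA beads bearing membranes from Ba/F3 cells transfected with human CXCR3 (N-delta 4) carrying a CD8 leader and Flag tag.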

Row | SMILES | IC50 [nM]
1 | CCNC(=O)c1cc(Cl)c(N2CCN(C3CCN(Cc4ccc(Cl)cc4F)CC3)[C@@H](CC)C2)[n+]([O-])c1 [compound 229] | < 25
2 | CC[C@H]1CN(c2ncc(C(N)=O)cc2Cl)CCN1C1CCN(Cc2ccc(Cl)cc2F)CC1 [compound 244] | < 25
3 | CC[C@H]1CN(c2ncc(C(=O)NC)cc2Cl)CCN1C1CCN(C(=O)c2ccc(Br)cc2)CC1 [compound 245] | < 25
4 | CCNC(=O)c1cnc(N2CCN(C3CCN(C(=O)c4ccc(Cl)cc4)CC3)[C@@H](CC)C2)c(Cl)c1 [compound 246] | < 25
5 | C[C@H]1CN(c2ncc(C(=O)NCc3ccc(F)c(F)c3)cc2Cl)CCN1C1CCN(C(=O)c2ccc(C#N)cc2)CC1 [compound 248] | < 25
6 | CCNC(=O)c1cnc(N2CCN(C3CCN(Cc4ccc(Cl)cc4F)CC3)C(C3CC3)C2)c(Cl)c1 (stereo not drawn) [compound 249] | < 25
7 | C[C@@H]1CN(c2ncc(C(=O)NCC3CCCCC3)cc2Cl)CCN1C1CCN(C(=O)c2ccc(C#N)cc2)CC1 [compound 250] | < 25
8 | O=C(NCc1ccc(F)c(F)c1)c1cnc(N2CCN(C3CCN(Cc4ccc(Cl)cc4)CC3)CC2)c(Br)c1 [compound 253] | < 25
9 | CCNC(=O)c1cnc(N2C[C@H](CC)N(C3CCN(C(=O)c4ccc(Cl)cc4)CC3)C[C@H]2C)c(Cl)c1 [compound 256] | < 25
10 | CC[C@H]1CN(c2ncc(C(=O)NCCO)cc2Cl)CCN1C1CCN(C(CO)c2ccc(Cl)cc2)CC1 (stereo partly drawn) [compound 257] | < 25
11 | CC[C@H]1CN(c2ncc(C(=O)NC)cc2Cl)CCN1C1CCN(C(=O)c2ccc(Cl)cc2)CC1 [compound 259] | < 25
12 | CCNC(=O)c1cnc(N2CCN(C3CCN(C(=O)c4ccc(Cl)cc4F)CC3)[C@@H](CC)C2)c(Cl)c1 [compound 260] | < 25
13 | CCNC(=O)c1cnc(N2CCN(C3CCN(C(=O)c4ccc(-n5cccc5)cc4)CC3)[C@@H](CC)C2)c(Cl)c1 [compound 262] | < 25
14 | CCNC(=O)c1cnc(N2C[C@H](C)N(C3CCN(Cc4ccc(Cl)cc4F)CC3)C[C@H]2C)c(Cl)c1 [compound 263] | < 25
15 | O=C(NCc1ccc(F)c(F)c1)c1cnc(N2CCN(C3CCN(Cc4ccc(Br)cc4)CC3)CC2)c(Br)c1 [compound 265] | < 25
16 | C[C@H]1CN(c2ncc(C(=O)NCc3ccc(Cl)c(Cl)c3)cc2Cl)CCN1C1CCN(C(=O)c2ccc(C#N)cc2)CC1 [compound 266] | < 25
17 | O=C(NCc1ccc(F)c(F)c1)c1cnc(N2CCN(C3CCN(Cc4ccc(Br)cc4)CC3)CC2)c(Cl)c1 [compound 267] | 25 to 100

Row | SMILES | IC50 [nM]
18 | O=C(NCc1ccc(F)c(F)c1)c1cnc(N2CCN(C3CCN(Cc4ccc([N+](=O)[O-])cc4)CC3)CC2)c(Cl)c1 [compound 268] | 25 to 100
19 | CCNC(=O)c1cnc(N2CCN(C3CCN(C(=O)c4ccc(C#N)cc4)CC3)[C@@H](CC)C2)c(Cl)c1 [compound 269] | 25 to 100
20 | CNC(=O)c1cnc(N2CCN(C3CCN([C@@H]4CCc5cc(Cl)ccc54)CC3)[C@@H](C)C2)c(Cl)c1 [compound 271] | 25 to 100
21 | O=C(NCc1ccc(F)cc1)c1cnc(N2CCN(C3CCN(Cc4ccc([N+](=O)[O-])cc4)CC3)CC2)c(Cl)c1 [compound 272] | 25 to 100
22 | CC[C@H]1CN(c2ncc(C(=O)NN)cc2Cl)CCN1C1CCN(Cc2ccc(Cl)cc2F)CC1 [compound 273] | 25 to 100
23 | CC[C@H]1CN(c2ncc(C(=O)NCCO)cc2Cl)CCN1C1CCN(C(C(=O)OC)c2ccc(Cl)cc2)CC1 (stereo partly drawn) [compound 274] | 25 to 100
24 | CCNC(=O)c1cnc(N2CCN(C3CCN(Cc4ccc(Cl)cc4F)CC3)C(CC(F)(F)F)C2)c(Cl)c1 (stereo not drawn) [compound 275] | 25 to 100
25 | COc1ccc(CN2CCC(N3CCN(c4ncc(C(=O)NCc5ccc(Cl)c(Cl)c5)cc4Br)CC3)CC2)cc1 [compound 276] | 25 to 100
26 | N#Cc1ccc(CN2CCC(N3CCN(c4ncc(C(=O)NCc5ccc(F)c(F)c5)cc4Br)CC3)CC2)cc1 [compound 277] | 25 to 100
27 | CNC(=O)c1cnc(N2CCN(C3CCN([C@H]4CCc5cc(Cl)ccc54)CC3)[C@@H](C)C2)c(Cl)c1 [compound 278] | 25 to 100
28 | O=C(NCc1ccc(Cl)c(Cl)c1)c1cnc(N2CCN(C3CCN(Cc4ccc(Cl)cc4)CC3)CC2)c(Br)c1 [compound 279] | 25 to 100
29 | COc1ccc(CN2CCC(N3CCN(c4ncc(C(=O)NCc5ccc(F)c(F)c5)cc4Br)CC3)CC2)cc1 [compound 280] | 25 to 100
30 | O=C(NCCOc1ccccc1)c1cnc(N2CCN(C3CCN(Cc4ccc(Cl)cc4)CC3)CC2)c(Br)c1 [compound 283] | 25 to 100
31 | O=C(NCc1ccc(Cl)c(Cl)c1)c1cnc(N2CCN(C3CCN(Cc4ccc(Br)cc4)CC3)CC2)c(Br)c1 [compound 284] | 25 to 100
32 | N#Cc1ccc(C(=O)N2CCC(N3CCN(c4ncc(C(=O)NCc5ccc(Cl)c(Cl)c5)cc4Br)CC3)CC2)cc1 [compound 285] | 25 to 100
33 | O=C(NCc1ccc(Cl)c(Cl)c1)c1cnc(N2CCN(C3CCN(Cc4ccc(Cl)cc4)CC3)CC2)c(Cl)c1 [compound 286] | 25 to 100
34 | CC[C@H]1CN(c2ncc(C(=O)NC(C)C)cc2Cl)CCN1C1CCN(C(=O)c2ccc(C#N)cc2)CC1 [compound 287] | 25 to 100

Further lines, results first:

Row | IC50 [nM] | SMILES
35 | < 25 | C[C@H]1CN(c2ncc(C(=O)NCC3CCCCC3)cc2Br)CCN1C1CCN(Cc2ccc(Cl)cc2)CC1 [compound 225]
36 | < 25 | C[C@H]1CN(c2ncc(C(=O)NCc3ccc(F)c(F)c3)cc2Cl)CCN1C1CCN(Cc2ccc(Cl)cc2)CC1 [compound 226]
37 | < 25 | CCNC(=O)c1cnc(N2CCN(C3CCN(Cc4ccc(Cl)cc4)CC3)[C@@H](C)C2)c(Cl)c1 [compound 227]
38 | < 25 | C[C@H]1CN(c2ncc(C(=O)NCC3CCCCC3)cc2Cl)CCN1C1CCN(Cc2ccc(Cl)cc2)CC1 [compound 228]
39 | < 25 | C[C@H]1CN(c2ncc(C(=O)NCc3ccc(Cl)c(Cl)c3)cc2Cl)CCN1C1CCN(Cc2ccc(C#N)cc2)CC1 [compound 230]
40 | < 25 | CCNC(=O)c1cnc(N2CCN(C3CCN([C@H](C)c4ccc(Cl)cc4)CC3)[C@@H](C)C2)c(Cl)c1 [compound 231]
41 | < 25 | CNC(=O)c1cnc(N2CCN(C3CCN([C@H](C)c4ccc(Cl)cc4)CC3)[C@@H](C)C2)c(Cl)c1 [compound 232]
42 | < 25 | C[C@H]1CN(c2ncc(C(=O)Nc3ccon3)cc2Cl)CCN1C1CCN(Cc2ccc(Cl)cc2)CC1 [compound 233]
43 | < 25 | C[C@H]1CN(c2ncc(C(=O)NCc3ccc(F)c(F)c3)cc2Cl)CCN1C1CCN(Cc2ccc(C#N)cc2)CC1 [compound 234]
44 | < 25 | C[C@@H]1CN(c2ncc(C(=O)NCC3CCCCC3)cc2Cl)CCN1C1CCN(Cc2ccc(C#N)cc2)CC1 [compound 235]
45 | < 25 | CC(C)NC(=O)c1cnc(N2CCN(C3CCN(Cc4ccc(Cl)cc4)CC3)[C@@H](C)C2)c(Cl)c1 [compound 236]
46 | < 25 | CNC(=O)c1cnc(N2CCN(C3CCN(Cc4ccc(Cl)cc4)CC3)[C@@H](C)C2)c(Br)c1 [compound 237]
47 | < 25 | CCNC(=O)c1cnc(N2CCN(C3CCN(C(C)c4ccc(Cl)cc4)CC3)[C@@H](C)C2)c(Cl)c1 (stereo partly drawn) [compound 239]
48 | < 25 | CNC(=O)c1cnc(N2CCN(C3CCN(Cc4ccc(Br)cc4F)CC3)[C@@H](C)C2)c(Cl)c1 [compound 240]
49 | < 25 | CNC(=O)c1cnc(N2CCN(C3CCN(Cc4ccc(Cl)cc4)CC3)[C@@H](C)C2)c(Cl)c1 [compound 241]
50 | < 25 | C[C@@H]1CN(c2ncc(C(=O)NCC3CCCCC3)cc2Cl)CCN1C1CCN(Cc2ccc(Cl)cc2)CC1 [compound 242]
51 | < 25 | CNC(=O)c1cnc(N2CCN(C3CCN(C(C)c4ccc(Cl)cc4)CC3)[C@@H](C)C2)c(Cl)c1 (stereo partly drawn) [compound 243]
52 | < 25 | C[C@@H](NC(=O)c1cnc(N2CCN(C3CCN(Cc4ccc(Cl)cc4)CC3)[C@@H](C)C2)c(Cl)c1)C1CCCCC1 [compound 247]
53 | < 25 | CCNC(=O)c1cnc(N2CCN(C3CCN(Cc4ccc(Cl)cc4F)CC3)[C@@H](C)C2)c(Cl)c1 [compound 251]
54 | < 25 | CNC(=O)c1cnc(N2CCN(C3CCN(Cc4ccc(Cl)cc4)C(C)C3)[C@@H](C)C2)c(Cl)c1 (stereo partly drawn) [compound 252]
55 | < 25 | C[C@@H]1CN(c2ncc(C(=O)NCc3ccc(F)c(F)c3)cc2Cl)CCN1C1CCN(Cc2ccc(Cl)cc2)CC1 [compound 254]
56 | < 25 | CNC(=O)c1cnc(N2CCN(C3CCN(Cc4ccc(Cl)cc4Cl)CC3)[C@@H](C)C2)c(Cl)c1 [compound 255]
57 | < 25 | CNC(=O)c1cnc(N2CCN(C3CCN(Cc4ccc(Cl)cc4F)CC3)[C@@H](C)C2)c(Cl)c1 [compound 258]
58 | < 25 | C[C@H]1CN(c2ncc(C(=O)Nc3ccc(F)c(F)c3)cc2Cl)CCN1C1CCN(Cc2ccc(Cl)cc2)CC1 [compound 261]
59 | < 25 | C[C@@H]1CN(c2ncc(C(=O)NCc3ccc(Cl)c(Cl)c3)cc2Cl)CCN1C1CCN(Cc2ccc(Cl)cc2)CC1 [compound 264]
60 | 25 to 100 | C[C@@H]1CN(c2ncc(C(=O)NCc3ccc(F)c(F)c3)cc2Cl)CCN1C1CCN(Cc2ccc(C#N)cc2)CC1 [compound 270]
61 | 25 to 100 | C[C@H]1CN(c2ncc(C(N)=O)cc2Cl)CCN1C1CCN(Cc2ccc(Cl)cc2)CC1 [compound 281]
62 | 25 to 100 | C[C@@H]1CN(c2ncc(C(=O)NCc3ccc(Cl)c(Cl)c3)cc2Cl)CCN1C1CCN(Cc2ccc(C#N)cc2)CC1 [compound 282]
63 | 25 to 100 | O=C(NCc1ccc(Cl)cc1)c1cnc(N2CCN(C3CCN(Cc4ccc(Cl)cc4)CC3)CC2)c(Cl)c1 [compound 288]

— patent US7776862B2, “Pyridyl and phenyl substituted piperazine-piperidines with CXCR3 antagonist activity” (Schering Corporation, priority 2005, dated 2010)
